Here are results for 11 compounds from US9321718B2 (CHROMA THERAPEUTICS LTD., priority 2010, dated 2016).

Data set [1] has as its target T1, human recombinant his-tagged HSP90α (Homo sapiens, UniProt P07900).
T1 construct: purchased Prospec Technogene #HSP90
The data set can be described thus: HSP90 enzyme assay (HTRF, competition with biotinylated Geldanamycin). It counts as binding. In short, it runs like this:
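HTRF competition: compounds (5000 to 0.3 nM, 0.5% DMSO) displace 40 nM biotinylated geldanamycin from 40 nM his-tagged HSP90α. Binding was read via Eu-cryptate anti-his/streptavidin-XL FRET after 20 h at room temperature in Hepes pH 7.3 buffer. IC50 was fitted against controls.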

For the next data set, the system named is U937 (hCE-1 +ve) cells. The data set can be described thus: Proliferation assay, U937 cells. The settings on record: for IC50: Homo sapiens, U-937, U937, 72 hours, WST-1, read-out: Proliferation assay: Inhibition of U937 (hCE-1 +ve) cell proliferation IC50. The class given is cell-based, human. As to the method: (§1) Cells are seeded in 96 well tissue culture plates (1 well=30 mm^2) at an appropriate density (2000 cells per well for U937 cells, 2250 cells per well for HUT-78 and MINO cells) in 50 μl of culture medium (see below for details). 24 Hours later 50 μl of the compound prepared in the same medium is added as 3 fold dilutions to give final concentrations in the range 5-10,000 nM (n=6 for each concentration). The plates are then incubated at 37° C., 5% CO2 for 72 hours. Cell proliferation is assessed using WST-1 (a metabolic indicator dye, Roche Cat no. 11644807001) according to the manufacturer's instructions. The results are calculated as a percentage of vehicle response and plotted as a dose-response curve. IC50 values represent the concentration of compound that inhibits the vehicle response by 50%.
(§2) Culture medium for U937 and RUT-78 cells is RPMI1640 (Sigma R0883) with 10% heat inactivated fetal calf serum (Hyclone SH30071, Perbio), plus 2 mM glutamine (Sigma G7513) and 50 U/ml penicillin and streptomycin sulphate (Sigma P0781). MINO cell culture medium is as for U937 and HUT-78 but supplemented with sodium pyruvate (Sigma S8636) to a final concentration of 1 mM.

A further data set concerns Hut78 (hCE-1 -ve) cells. The experiment in a line: Proliferation assay, Hut78 cells. The settings on record: for IC50: Homo sapiens, Hut78, 72 hours, WST-1, read-out: Proliferation assay: Inhibition of Hut78 (hCE-1 -ve) cell proliferation IC50. It counts as cell-based, human. As to the method: as §1, §2
The test system of data set [2] is TNFα release from LPS stimulated THP-1 (hCE-1 +ve) cells. The data set can be described thus: LPS-stimulation of THP-1 cells (TNF-α release). The class given is cell-based, human. The method in brief: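 THP-1 cells at 4×10^4 per well were pre-incubated for 16 h, then exposed to inhibitor for 2 h before stimulation with 1 μg/ml LPS for 6 h at 37 °C. TNF-α in cell-free supernatants was measured by sandwich ELISA.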

Data set [3] relates to TNF-α levels in LPS-stimulated human whole blood. The experiment in a line: LPS-stimulation of human whole blood (TNF-α levels). The class given is cell-based. The settings on record: IC50 range, TNF-α after LPS 100 ng/ml, 6 hours. As to the method: Whole blood is taken by venous puncture using heparinised vacutainers (Becton Dickinson) and diluted in an equal volume of RPMI1640 tissue culture media (Sigma). 100 μl is then plated in V-bottomed 96 well tissue culture treated plates. 2 Hours after the addition of the inhibitor in 100 μl of RPMI1640 media, the blood is stimulated with LPS (E. Coli strain 005:B5, Sigma) at a final concentration of 100 ng/ml and incubated at 37° C. in 5% CO2 for 6 hours. TNF-α levels are measured from cell-free supernatants by sandwich ELISA (R&D Systems #QTA00B).

The test system of the next data set is intact THP-1 cells. The experiment in a line: Carboxylic acid accumulation in intact THP-1 cells. It counts as in vitro ADME, human. The settings on record: in words. As to the method: (§3) The assessment of the accumulation of ester-derived acid in intact human tumour cells can be measured using the following method:
(§4) U937, THP-1 or Hut 78 cells (4×10^4/ml) were incubated at 37° C. in culture medium containing 6 μM compound. Incubations were terminated by centrifugation (300 g; 5 min; 4° C.). Supernatants were added to 4 volumes of HPLC-grade acetonitrile. After decanting the supernatant, the residual cell pellet (1×10^6 cells) was extracted into 1 ml of acetonitrile. Samples were analyzed for the ester and acid metabolite at room temperature by LC/MS/MS (Sciex API3000). Chromatography was based on an AceCN (75*21 mm) column with a 5-95% (v/v) acetonitrile, 0.1% (v/v) formic acid mobile phase.

The subject of a further data set is intact Hut78 cells. The data set can be described thus: Carboxylic acid accumulation in intact Hut78 cells. The class given is in vitro ADME, human. The note with it: in words. As to the method:
as §3, §4

For a further data set, the system named is intact U937 cells. The data set can be described thus: Carboxylic acid accumulation in intact U937 cells. The note with it: in words. The class given is in vitro ADME, human. As to the method:
as §3, §4

[4] abbreviates: compound as drawn (ester for the ester compound), read-out: Enzyme assay: Inhibition of Hsp90 (IC50 nM).
Where [5] appears, read: Homo sapiens, THP-1, read-out: THP-1 assay: Inhibition of TNFα release from LPS stimulated THP-1 (hCE-1 +ve) cells (IC50 nM).
Setting [6] is: IC50 range, read-out: Enzyme Assay.
Where [7] appears, read: Homo sapiens, THP-1, IC50 range, TNF-α after LPS 1 μg/ml, 6 hours, read-out: THP-1 Assay.
Setting [8] is: IC50 range, TNF-α after LPS 1 μg/ml, 6 hours, read-out: THP-1 Assay.

Read-outs that look alike come from different tables or passages of the source.

As for `CC1CCN(C(=O)c2cc(C(C)C)c(O)cc2O)CC1` [CHR-7310, reference compound], the IC50 in data set [1] (setting [4]) is 8 nM; in the data set with U937 (hCE-1 +ve) cells, 200 nM; in the data set with Hut78 (hCE-1 -ve) cells it was 145 nM; in data set [2] (setting [5]), 476 nM. For the same compound, in the data set on Hut78 (hCE-1 -ve) cells, the “Ratio of IC50's of Hut78 to U937 cells” value is about 1.
Regarding `CC(C)C[C@H](NC1CCN(C(=O)c2cc(C(C)C)c(O)cc2O)CC1)C(=O)OC1CCCC1` [Example 1, cyclopentyl N-(1-{[2,4-dihydroxy-5-(propan-2-yl)phenyl]carbonyl}piperidin-4-yl)-L-leucinate], the figures for the IC50 in data set [1] (setting [6]), in data set [3] (Homo sapiens) and in data set [2] (setting [7]) were under 100 nM, 100 to 1000 nM and under 100 nM, respectively. Also, the “Carboxylic acid accumulated by THP-1 cells” value in the data set with intact THP-1 cells is listed as “significant amounts”. Moreover, in the data set with intact Hut78 cells, the “Acid detected in Hut78 cells” value is on record as “negligible”. Besides, the “Carboxylic acid accumulated by U937 cells” value in the data set with intact U937 cells is given as “significant amounts”.
Turning to `CC(C)c1cc(C(=O)N2CCC(N[C@@H](COC(C)(C)C)C(=O)OC3CCCC3)CC2)c(O)cc1O` [Example 17, cyclopentyl O-tert-butyl-N-(1-{[2,4-dihydroxy-5-(propan-2-yl)phenyl]carbonyl}piperidin-4-yl)-L-serinate], the IC50 is under 100 nM in data set [1] (setting [6]); 7 nM in data set [1] (acid (carboxylic acid of the ester drawn), read-out: Enzyme assay: Inhibition of Hsp90 (IC50 nM)); 42 nM in data set [1] (setting [4]); 27 nM in the data set with U937 (hCE-1 +ve) cells; 100 to 1000 nM in data set [3] (Homo sapiens); 760 nM with Hut78 (hCE-1 -ve) cells. Also, the values for the IC50 in data set [2] (setting [7]) and in data set [2] (setting [5]) were under 100 nM and 45 nM, respectively. Moreover, the “IC50 in the Hsp90 binding assay compared with CHR-7310” value in data set [1] (in words, relative to non-ester parent CHR-7310) is listed as “weaker”. Also, the “Potency in U937 cells compared with CHR-7310” value in the data set with U937 (hCE-1 +ve) cells (in words, relative to CHR-7310) is recorded as “significantly more potent”. Besides, in the data set with Hut78 (hCE-1 -ve) cells, the “Ratio of IC50's of Hut78 to U937 cells” value turned out to be 28. Besides, the “Potency in Hut78 cells” value in the data set with Hut78 (hCE-1 -ve) cells (in words, Hut78 cells do not contain hCE-1) was “significantly weaker”. The “Potency in THP-1 cells compared with CHR-7310” value in data set [2] (in words, relative to CHR-7310) was “significantly more potent”.
Consider `CC(C)c1cc(C(=O)N(C)Cc2ccc(CN[C@H](C(=O)OC3CCCC3)c3ccccc3)cc2)c(O)cc1O` [Example 71, cyclopentyl (2S)-[(4-{[{[2,4-dihydroxy-5-(propan-2-yl)phenyl]carbonyl}(methyl)amino]methyl}benzyl)amino](phenyl)ethanoate], for which the IC50 in data set [1] (setting [6]), in data set [3] (Homo sapiens) and in data set [2] (setting [7]) was 100 to 1000 nM each time.
Turning to `CC(C)c1cc(C(=O)N(C)Cc2ccc(CNC(C)(C)C(=O)OC3CCCC3)cc2)c(O)cc1O` [Example 72, cyclopentyl N-(4-{[{[2,4-dihydroxy-5-(propan-2-yl)phenyl]carbonyl}(methyl)amino]methyl}benzyl)-2-methylalaninate], the IC50 was under 100 nM in data set [1] (setting [6]), 100 to 1000 nM in data set [3] (Homo sapiens) and 100 to 1000 nM in data set [2] (setting [7]).
Turning to `CC(C)c1cc(C(=O)N(C)Cc2ccc(CCNC(C)(C)C(=O)OC3CCCC3)cc2)c(O)cc1O` [Example 73, cyclopentyl N-[2-(4-{[{[2,4-dihydroxy-5-(propan-2-yl)phenyl]carbonyl}(methyl)amino]methyl}phenyl)ethyl]-2-methylalaninate], the values for the IC50 in data set [1] (setting [6]), in data set [3] (Homo sapiens) and in data set [2] (setting [7]) were under 100 nM, 100 to 1000 nM and 100 to 1000 nM, respectively.
For `CC(C)C[C@H](NC[C@H]1CCCN1C(=O)c1cc(C(C)C)c(O)cc1O)C(=O)OC1CCCC1` [Example 74, cyclopentyl N-{[(2R)-1-{[2,4-dihydroxy-5-(propan-2-yl)phenyl]carbonyl}pyrrolidin-2-yl]methyl}-L-leucinate], the results for the IC50 in data set [1] (setting [6]), in data set [3] (Homo sapiens) and in data set [2] (setting [7]) were 100 to 1000 nM, over 1000 nM and over 1000 nM, respectively.
In the case of `CC(C)C[C@H](NC[C@@H]1CCCN1C(=O)c1cc(C(C)C)c(O)cc1O)C(=O)OC1CCCC1` [Example 75, cyclopentyl N-{[(2S)-1-{[2,4-dihydroxy-5-(propan-2-yl)phenyl]carbonyl}pyrrolidin-2-yl]methyl}-L-leucinate], the IC50 in data set [1] (setting [6]), in data set [3] (Homo sapiens) and in data set [2] (setting [7]) was over 1000 nM in each case.
For the compound `CC(C)C[C@@H](NC1CCN(C(=O)c2cc(C(C)C)c(O)cc2O)C1)C(=O)OC1CCCC1` (stereo partly drawn) [Example 76, cyclopentyl N-(1-{[2,4-dihydroxy-5-(propan-2-yl)phenyl]carbonyl}pyrrolidin-3-yl)-D-leucinate], the values for the IC50 in data set [1] (setting [6]), in data set [3] (Homo sapiens) and in data set [2] (setting [7]) were under 100 nM, over 1000 nM and over 1000 nM, respectively.
Turning to “cyclopentyl N-(1-{[2,4-dihydroxy-5-(propan-2-yl)phenyl]carbonyl}piperidin-4-yl)-L-valinate [Example 3]”, the figures for the IC50 in data set [1] (setting [6]), in data set [3] and in data set [2] (setting [8]) were under 100 nM, over 1000 nM and over 1000 nM, respectively.
Consider “cyclopentyl N-[(1-{[2,4-dihydroxy-5-(propan-2-yl)phenyl]carbonyl}piperidin-4-yl)methyl]-L-serinate [Example 33]”, for which the IC50 in data set [1] (setting [6]) is under 100 nM; in data set [3], 100 to 1000 nM; in data set [2] (setting [8]) it was 100 to 1000 nM.
